The source of these data is patent US20050265999A1, “Modulation of 5-HT2 receptors as a treatment for cardiovascular diseases” (Myogen, Inc., priority 2003, published 2005).

For the experiment, the system named is neonatal rat ventricular myocytes (NRVM). Nature of the experiment: Total cellular protein (Coomassie dye-binding) in NRVM. The format is cell-based. Particulars: NRVM stimulated with compound alone. On the procedure: NRVM culture. For preparations of neonatal rat ventricular myocytes (NRVMs), hearts were removed from 10-20 newborn (1-2 days old) Sprague-Dawley rats. Isolated ventricles were pooled, minced and dispersed by three 20-min incubations at 37° C. in Ads buffer (116 mM NaCl, 20 mM HEPES, 10 mM NaH2PO4, 5.5 mM glucose, 5 mM KCl, 0.8 mM MgSO4, pH 7.4) containing collagenase Type II (65 units/ml, Worthington) and pancreatin (0.6 mg/ml, GibcoBRL). Dispersed cells were applied to a discontinuous gradient of 40.5% and 58.5% (v/v) Percoll (Amersham Biosciences), centrifuged, and myocytes collected from the interface layer. […]
Hypertrophy and toxicity assays. Primary hypertrophy endpoints for NRVM included quantitation of: ANF secretion, total cellular protein and cell volume. ANF in media supernatants was quantitated by competitive ELISA using a monoclonal anti-ANF antibody (Biodesign) and a biotinylated ANF peptide (Phoenix Peptide). Total cellular protein was quantitated by standard Coomassie dye-binding assay; cells were lysed in protein assay reagent (BioRad) and absorbance at A595 was measured after 1 hour. […] After recovery by centrifugation, cell pellets were washed in PBS, resuspended in 10 ml IsoFlow electrolyte solution (Beckman-Coulter) and analyzed with a Z2 Coulter Particle Counter and Size Analyzer (Beckman-Coulter). […]

In the case of `Cc1c(-c2ccccc2)nc2sc3c(c2c1N)CCCC3` [Compound 18264, 3-Methyl-2-phenyl-5,6,7,8-tetrahydro-benzo[4,5]thieno[2,3-b]pyridin-4-ylamine], the total cellular protein entry is recorded as “increased”.
